Converted amounts (≈) assume the structure as drawn.
Assays:
RPMI8226 cell line = assay: multiple myeloma cell growth inhibition, MTT; type: cell-based; details: Homo sapiens, RPMI-8226; for inhibition at 16 µg/mL: RPMI8226, 16 μg/mL compound, 72 h, read-out: IR (cell proliferation inhibition rate); for IC50: RPMI8226, 72 h
How it was run: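 Viability was measured by MTT after a 72 h compound exposure (37° C, 5% CO2) of RPMI8226 myeloma cells seeded at 6000 per well in 1640 medium with 10% fetal bovine serum. Growth inhibition was expressed relative to untreated cells, taken as 0%.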

Hep G2 cell line = assay: solid tumor cell growth inhibition, MTT; type: cell-based, human; details: Homo sapiens; for inhibition at 16 µg/mL: HepG2, 72 h, Hep G2, 16 μg/mL compound, 72 h, read-out: IR (cell proliferation inhibition rate); for IC50: HepG2, Hep G2, 72 h
How it was run: (§1)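 MTT read-out of relative living-cell number after a 72 h compound exposure at 37° C, 5% CO2. Cells had been plated at 4000 per well in DMEM high glucose containing 10% fetal bovine serum and allowed 24 h before dosing. Inhibition is referenced to untreated wells set at 0%.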

H9 cell line = assay: leukemia cell growth inhibition, MTT; type: cell-based; details: Homo sapiens; for IC50: H9, 72 h; for inhibition at 16 µg/mL: H9, 16 μg/mL compound, 72 h, read-out: IR (cell proliferation inhibition rate)
How it was run: (§2)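 Proliferation inhibition was read by MTT after 72 h of compound exposure (37 °C, 5% CO2), untreated wells defining 0%. Each well held 6000 cells in 1640 medium plus 10% fetal bovine serum, with test compounds at varied concentrations.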

NB4 cell line = assay: leukemia cell growth inhibition, MTT; type: cell-based; details: Homo sapiens, NB-4; for inhibition at 16 µg/mL: NB4, 16 μg/mL compound, 72 h, read-out: IR (cell proliferation inhibition rate); for IC50: NB4, 72 h
How it was run: as §2

Jurkat cell line = assay: leukemia cell growth inhibition, MTT; type: cell-based; details: Homo sapiens, 72 h; for inhibition at 16 µg/mL: 16 μg/mL compound, read-out: IR (cell proliferation inhibition rate)
How it was run: as §2

Kasumi-1 cell line = assay: leukemia cell growth inhibition, MTT; type: cell-based; details: Homo sapiens; for inhibition at 16 µg/mL: Kasumi-1, 16 μg/mL compound, 72 h, read-out: IR (cell proliferation inhibition rate); for IC50: Kasumi-1, 72 h
How it was run: as §2

K562/adr cell line = assay: leukemia cell growth inhibition, MTT; type: cell-based; details: Homo sapiens, 72 h; for IC50: K562/Adr; for inhibition at 16 µg/mL: K562/adr, 16 μg/mL compound, read-out: IR (cell proliferation inhibition rate)
How it was run: as §2

PC-3 cell line = assay: solid tumor cell growth inhibition, MTT; type: cell-based; details: Homo sapiens; for IC50: PC-3, 72 h; for inhibition at 16 µg/mL: PC-3, 16 μg/mL compound, 72 h, read-out: IR (cell proliferation inhibition rate)
How it was run: as §1

Becap37 cell line = assay: solid tumor cell growth inhibition, MTT; type: cell-based; details: Homo sapiens; for inhibition at 16 µg/mL: Becap37, 16 μg/mL compound, 72 h, read-out: IR (cell proliferation inhibition rate); for IC50: Becap37, 72 h
How it was run: as §1

MGC 803 cell line = assay: solid tumor cell growth inhibition, MTT; type: cell-based; details: Homo sapiens; for inhibition at 16 µg/mL: MGC 803, 16 μg/mL compound, 72 h, read-out: IR (cell proliferation inhibition rate); for IC50: MGC 803, 72 h
How it was run: as §1

Hep-2 cell line = assay: solid tumor cell growth inhibition, MTT; type: cell-based; details: Homo sapiens; for IC50: HEp-2, 72 h; for inhibition at 16 µg/mL: Hep-2, 16 μg/mL compound, 72 h, read-out: IR (cell proliferation inhibition rate)
How it was run: as §1

A549 cell line = assay: solid tumor cell growth inhibition, MTT; type: cell-based; details: Homo sapiens; for IC50: A549, 72 h; for inhibition at 16 µg/mL: A549, 16 μg/mL compound, 72 h, read-out: IR (cell proliferation inhibition rate)
How it was run: as §1

RKO cell line = assay: solid tumor cell growth inhibition, MTT; type: cell-based; details: Homo sapiens, 72 h; for inhibition at 16 µg/mL: 16 μg/mL compound, read-out: IR (cell proliferation inhibition rate)
How it was run: as §1

SK-OV-3 cell line = assay: solid tumor cell growth inhibition, MTT; type: cell-based; details: Homo sapiens; for IC50: SK-OV-3, 72 h; for inhibition at 16 µg/mL: SK-OV-3, 16 μg/mL compound, 72 h, read-out: IR (cell proliferation inhibition rate)
How it was run: as §1

CaES-17 cell line = assay: solid tumor cell growth inhibition, MTT; type: cell-based; details: Homo sapiens, CaEs17; for inhibition at 16 µg/mL: CaES-17, 16 μg/mL compound, 72 h, read-out: IR (cell proliferation inhibition rate); for IC50: CaES-17, 72 h
How it was run: as §1

U87 MG cell line = assay: solid tumor cell growth inhibition, MTT; type: cell-based; details: Homo sapiens, U-87 MG, 72 h; for inhibition at 16 µg/mL: 16 μg/mL compound, read-out: IR (cell proliferation inhibition rate)
How it was run: as §1

MG-63 cell line = assay: solid tumor cell growth inhibition, MTT; type: cell-based; details: Homo sapiens; for IC50: MG-63, 72 h; for inhibition at 16 µg/mL: MG-63, 16 μg/mL compound, 72 h, read-out: IR (cell proliferation inhibition rate)
How it was run: as §1

CNE cell line = assay: solid tumor cell growth inhibition, MTT; type: cell-based; details: Homo sapiens, 72 h; for inhibition at 16 µg/mL: 16 μg/mL compound, read-out: IR (cell proliferation inhibition rate)
How it was run: as §1

Hela cell line = assay: solid tumor cell growth inhibition, MTT; type: cell-based; details: Homo sapiens, 72 h; for IC50: HeLa; for inhibition at 16 µg/mL: Hela, 16 μg/mL compound, read-out: IR (cell proliferation inhibition rate)
How it was run: as §1

PANC-1 cell line = assay: solid tumor cell growth inhibition, MTT; type: cell-based; details: Homo sapiens; for IC50: PANC-1, 72 h; for inhibition at 16 µg/mL: PANC-1, 16 μg/mL compound, 72 h, read-out: IR (cell proliferation inhibition rate)
How it was run: as §1

Row | Structure (SMILES) | inhibition at 16 µg/mL (RPMI8226 cell line) [%] | IC50 (RPMI8226 cell line) [µg/mL] | inhibition at 16 µg/mL (Hep G2 cell line) [%] | IC50 (Hep G2 cell line) [µg/mL] | IC50 (H9 cell line) [µg/mL] | inhibition at 16 µg/mL (H9 cell line) [%] | inhibition at 16 µg/mL (NB4 cell line) [%] | IC50 (NB4 cell line) [µg/mL] | inhibition at 16 µg/mL (Jurkat cell line) [%] | IC50 (Jurkat cell line) [µg/mL] | inhibition at 16 µg/mL (Kasumi-1 cell line) [%] | IC50 (Kasumi-1 cell line) [µg/mL] | IC50 (K562/adr cell line) [µg/mL] | inhibition at 16 µg/mL (K562/adr cell line) [%] | IC50 (PC-3 cell line) [µg/mL] | inhibition at 16 µg/mL (PC-3 cell line) [%] | inhibition at 16 µg/mL (Becap37 cell line) [%] | IC50 (Becap37 cell line) [µg/mL] | inhibition at 16 µg/mL (MGC 803 cell line) [%] | IC50 (MGC 803 cell line) [µg/mL] | further results
1 | CCN(CC)CCCNC(=O)C1C[C@]2(C)[C@H]3CC=C4[C@@H]5CC(C)(C)CC[C@]5(C(=O)OC)CC[C@@]4(C)[C@]3(C)CC[C@H]2C(C)(C)C1=O (stereo partly drawn) [BS-OA-035] | 99.1 | 0.61 (≈ 0.976 µM) | > 96 | 1.94 (≈ 3.1 µM) | 2.67 (≈ 4.27 µM) | 97.5 | 99.8 | 2.96 (≈ 4.74 µM) | 96.6 | 1.67 (≈ 2.67 µM) | 97 | 3.95 (≈ 6.32 µM) | 0.68 (≈ 1.09 µM) | 99.6 | 5 (≈ 8 µM) | 98.5 | 98.6 | 5.2 (≈ 8.32 µM) | 98.9 | 2.56 (≈ 4.1 µM) | IC50 (Hep-2 cell line): 5.34 µg/mL (≈ 8.54 µM); inhibition at 16 µg/mL (Hep-2 cell line): 98.5%; IC50 (A549 cell line): 2.02 µg/mL (≈ 3.23 µM); inhibition at 16 µg/mL (A549 cell line): 97.3%; inhibition at 16 µg/mL (RKO cell line): 97.2%; IC50 (RKO cell line): 2.39 µg/mL (≈ 3.82 µM); IC50 (SK-OV-3 cell line): 3.72 µg/mL (≈ 5.95 µM); inhibition at 16 µg/mL (SK-OV-3 cell line): 98.6%; inhibition at 16 µg/mL (CaES-17 cell line): 98%; IC50 (CaES-17 cell line): 2.74 µg/mL (≈ 4.38 µM); inhibition at 16 µg/mL (U87 MG cell line): 97.1%; IC50 (U87 MG cell line): 2.7 µg/mL (≈ 4.32 µM); IC50 (MG-63 cell line): 1.62 µg/mL (≈ 2.59 µM); inhibition at 16 µg/mL (MG-63 cell line): 100%; inhibition at 16 µg/mL (CNE cell line): 99%; IC50 (CNE cell line): 3.64 µg/mL (≈ 5.82 µM); IC50 (Hela cell line): 3.11 µg/mL (≈ 4.98 µM); inhibition at 16 µg/mL (Hela cell line): 98.1%; IC50 (PANC-1 cell line): 4.89 µg/mL (≈ 7.82 µM); inhibition at 16 µg/mL (PANC-1 cell line): 99.8%
2 | COC(=O)[C@]12CCC(C)(C)CC1C1=CCC3[C@@]4(C)CC(C(=O)NCCCN5CCOCC5)C(=O)C(C)(C)C4CC[C@@]3(C)[C@]1(C)CC2 (stereo partly drawn) [BS-OA-037] | 99.1 | 2.43 (≈ 3.8 µM) | 95.7 | 8.68 (≈ 13.6 µM) | 8.73 (≈ 13.7 µM) | 95.8 | 97.6 | 4.59 (≈ 7.18 µM) | 80.4 | 11.5 (≈ 17.9 µM) | 63.7 | 13.5 (≈ 21.1 µM) | 1.57 (≈ 2.46 µM) | 97.6 | 18.7 (≈ 29.2 µM) | 44.2 | 8.4 | > 16 | 80.5 | 10.8 (≈ 16.9 µM) | IC50 (Hep-2 cell line): > 16 µg/mL; inhibition at 16 µg/mL (Hep-2 cell line): 25.6%; IC50 (A549 cell line): 10.4 µg/mL (≈ 16.3 µM); inhibition at 16 µg/mL (A549 cell line): 82%; inhibition at 16 µg/mL (RKO cell line): 62.6%; IC50 (RKO cell line): 14.4 µg/mL (≈ 22.5 µM); IC50 (SK-OV-3 cell line): 10.2 µg/mL (≈ 15.9 µM); inhibition at 16 µg/mL (SK-OV-3 cell line): 90.9%; inhibition at 16 µg/mL (CaES-17 cell line): 82.3%; IC50 (CaES-17 cell line): 11.6 µg/mL (≈ 18.1 µM); inhibition at 16 µg/mL (U87 MG cell line): 92.6%; IC50 (U87 MG cell line): 11.1 µg/mL (≈ 17.4 µM); IC50 (MG-63 cell line): 12.5 µg/mL (≈ 19.5 µM); inhibition at 16 µg/mL (MG-63 cell line): 64.6%; inhibition at 16 µg/mL (CNE cell line): 52.6%; IC50 (CNE cell line): 15.5 µg/mL (≈ 24.2 µM); IC50 (Hela cell line): 11 µg/mL (≈ 17.3 µM); inhibition at 16 µg/mL (Hela cell line): 93.6%; IC50 (PANC-1 cell line): > 16 µg/mL; inhibition at 16 µg/mL (PANC-1 cell line): 11.3%
3 | COC(=O)[C@]12CCC(C)(C)CC1C1=CCC3[C@@]4(C)CC(C(=O)NCCCN(C)C)C(=O)C(C)(C)C4CC[C@@]3(C)[C@]1(C)CC2 (stereo partly drawn) [BS-OA-042] | 98.9 | 0.68 (≈ 1.14 µM) | > 96 | 2.36 (≈ 3.95 µM) | 3.12 (≈ 5.23 µM) | 95.9 | 100 | 2.63 (≈ 4.41 µM) | 99 | 2.43 (≈ 4.07 µM) | 99.1 | 4.1 (≈ 6.87 µM) | 0.64 (≈ 1.07 µM) | 98.4 | 4.78 (≈ 8.01 µM) | 100 | 98.7 | 4.32 (≈ 7.24 µM) | 99.2 | 2.84 (≈ 4.76 µM) | IC50 (Hep-2 cell line): 5.99 µg/mL (≈ 10 µM); inhibition at 16 µg/mL (Hep-2 cell line): 95.2%; IC50 (A549 cell line): 2.06 µg/mL (≈ 3.45 µM); inhibition at 16 µg/mL (A549 cell line): 96.9%; inhibition at 16 µg/mL (RKO cell line): 100%; IC50 (RKO cell line): 3.29 µg/mL (≈ 5.51 µM); IC50 (SK-OV-3 cell line): 3.63 µg/mL (≈ 6.08 µM); inhibition at 16 µg/mL (SK-OV-3 cell line): 97.9%; inhibition at 16 µg/mL (CaES-17 cell line): 98.1%; IC50 (CaES-17 cell line): 2.97 µg/mL (≈ 4.98 µM); inhibition at 16 µg/mL (U87 MG cell line): 98.6%; IC50 (U87 MG cell line): 2.54 µg/mL (≈ 4.26 µM); IC50 (MG-63 cell line): 2.72 µg/mL (≈ 4.56 µM); inhibition at 16 µg/mL (MG-63 cell line): 98.2%; inhibition at 16 µg/mL (CNE cell line): 99.5%; IC50 (CNE cell line): 3.89 µg/mL (≈ 6.52 µM); IC50 (Hela cell line): 3.47 µg/mL (≈ 5.81 µM); inhibition at 16 µg/mL (Hela cell line): 98.9%; IC50 (PANC-1 cell line): 5.02 µg/mL (≈ 8.41 µM); inhibition at 16 µg/mL (PANC-1 cell line): 99.4%
